Patent US4668677A, “4-phenylphthalazine derivatives, their preparation and their use as pharmaceuticals” (Mitsubishi Chemical Industries Limited, priority 1984, dated 1987)
Read-outs that look alike come from different tables or passages of the source.

Key:
femoral artery = assay: Action on blood flow volume in femoral artery; assay type: in vivo, rabbit (male New Zealand White)
Protocol: (§1) Male New Zealand White rabbits (body weight of 2.8 Kg to 3.5 Kg) were used and anesthetized with pentobarbital sodium. Blood flow volumes in the carotid artery and femoral artery were measured and recorded via a non-blood observing type of a probe for measuring blood flow volume. Also, blood pressure in femoral artery was simultaneously measured and recorded with measurement of blood flow.
(§2) The compound of this invention was dissolved in an aqueous solution containing 1% tartaric acid and 1% dimethylacetamide, while papaverine hydrochloride dissolved in 0.9% physiological saline. These test compounds were intravenously given through a residual polyethylene tube within femoral vein.

in vivo = conditions: rat, po, rats
mice = assay: Anti-thrombotic activity: arachidonic acid-induced mortality in mice; assay type: in vivo, mouse (male ICR-JCL strain); conditions: for Survival time of dead mice: arachidonic acid 100 mg/Kg i.v.; for Mortality: arachidonic acid 100 mg/Kg i.v. after 1 hour
Protocol: (§3) Male ICR-JCL strain mice with an average body weight of about 25 g and male New Zealand White rabbits with an average body weight of about 3 Kg were used.
Where mice were used as experimental animals, a suspension of the test compound indicated in Table 3 in a 1% tragacanth aqueous solution was orally administered to animals at 20 ml/Kg. One hour after the administration, an arachidonic acid (PL-biochemical Co., Inc.) solution dissolved in a 0.1M sodium carbonate aqueous solution was intravenously given at 100 mg/Kg. Evaluation of activity was effected with the time from the administration of arachidonic acid up to the death of animals as well as mortality.

rabbits = assay: Anti-thrombotic activity: arachidonic acid-induced mortality in rabbits; assay type: in vivo, rabbit (male New Zealand White)
Protocol: as §3
Where rabbits were used as experimental animals, a suspension of the test compound in a 1% tragacanth aqueous solution was orally administered to animals at 5 ml/Kg. Two hours after the administration, an arachidonic acid solution dissolved in a 0.1M potassium carbonate solution was injected into pinna vein at 1.4 mg/Kg.
Evaluation of activity was effected with mortality at the time when arachidonic acid given. If survived at the first administration of arachidonic acid, arachidonic acid was administered after 6 hours, 24 hours, 48 hours and 72 hours from the administration of the test compound, respectively, and mortality was determined in respective cases.

blood platelets = assay: Activity to inhibit the aggregation of blood platelets (collagen, ex vivo after oral administration); assay type: in vivo, rat (male Wistar-ST strain); conditions: Rattus norvegicus, Platelet
Protocol: Male Wistar-ST strain rats of an average body weight of 250 g were used, a group consisting of 8 animals. The test compound indicated in the following Table 1 was orally administered to rats in the form of a suspension in a 1% tragacanth aqueous solution at 4 ml/Kg (the test compound 10 mg/Kg).
One hour after the administration, blood samples were obtained from the carotid artery by means of a cannule. […] Tubes were turned upside-down and then subjected to centrifugation at 200×g over 15 minutes to assign the supernatant as a platelet-rich plasma (PRP). The residue was further centrifuged at […] over 15 minutes to assign the supernatant as a platelet-poor plasma (PPP). These supernatants were applied for determining the ability to aggregate blood platelets. […] As an aggregation inducing agent, collagen (availale from Hormon-chemie A.G.) was used at a concentration of 7 to 10 μg/ml.
Inhibitory rate to aggregate blood platelets was calculated according to the following equation: [formula] A: […] in the group to which the 1% tragacanth solution alone was given (Control)
B: Aggregation rate in the group to which the tragacanth solution of the test compound was given.

carotid artery = assay: Action on blood flow volume in carotid artery; assay type: in vivo, rabbit (male New Zealand White)
Protocol: as §1, §2

[1] = system: PGI2-like substance in vessel walls; assay: Influence on production of PGI2-like substance in vessel walls (ADP aggregation with carotid artery ring); assay type: in vivo, rat (male Wistar-ST strain); conditions: 1 hour, 10 μM ADP
Protocol: Male Wistar-ST strain rats with an average weight of about 250 g were used as experimental animals. After fasted for 18 hours, 6.3 ml of blood sample were obtained from corotid artery and immediately thereafter 0.7 ml of an anticoagulant (3.8% sodium citrate) was added and the sample was centrifuged at 200×g over 15 minutes to take platelet-rich plasma (PRP). The same procedures as above were carried out, using 5 to 6 rats, whereby 5-6 ml as normal PRP were stored and employed.
Reference aggregation values were determined by pouring 1 ml each of stored PRP into plastic test tubes, incubating them at 22° C. for 10 minutes and then determining aggregation rate. As an aggregation inducing agent, one employed 10 μM ADP (available from Sigma Co., Inc.)
A suspension of the compound of this invention or aspirin in a 1% aqueous solution of tragacanth was orally given to animals. After 1 hour, 5 mg of carotid artery were cut out in a ring shape and placed into a plastic test tube together with 1 ml of stored PRP. After incubated at 22° C. for 10 minutes, aggregation rate was determined.
Also, non-medicated groups were similarly treated and aggregation rate was determined.
Determination of blood platelet aggregation rate was made by means of an aggregometer.

Compound: CCC(CC)Nc1nnc(-c2ccccc2)c2ccccc12 [Compound 2, 1-(1-ethylpropylamino)-4-phenylphthalazine]
- Blood flow volume in femoral artery, A: Before administration (femoral artery; 0.01 mg/Kg i.v.): 20.9 mL/min
- Blood flow volume in femoral artery, B: After administration (femoral artery; 0.01 mg/Kg i.v.): 26.5 mL/min
- Blood flow volume in femoral artery, C: Increase degree (femoral artery; 0.01 mg/kg i.v.): 5.6 mL/min
- Blood flow volume in femoral artery, D: Increase rate (femoral artery; 0.01 mg/kg i.v.): 28.5%
- Blood flow volume in femoral artery, A: Before administration (femoral artery; 0.05 mg/Kg i.v.): 18.8 mL/min
- Blood flow volume in femoral artery, B: After administration (femoral artery; 0.05 mg/Kg i.v.): 20.3 mL/min
- Blood flow volume in femoral artery, C: Increase degree (femoral artery; 0.05 mg/kg i.v.): 3.3 mL/min
- Blood flow volume in femoral artery, D: Increase rate (femoral artery; 0.05 mg/kg i.v.): 13.4%
- Blood flow volume in femoral artery, A: Before administration (femoral artery; 0.1 mg/Kg i.v.): 15.9 mL/min
- Blood flow volume in femoral artery, B: After administration (femoral artery; 0.1 mg/Kg i.v.): 12.5 mL/min
- Blood flow volume in femoral artery, C: Increase degree (femoral artery; 0.1 mg/kg i.v.): 3.4 mL/min
- Blood flow volume in femoral artery, D: Increase rate (femoral artery; 0.1 mg/kg i.v.): 23.4%
- Blood flow volume in femoral artery, A: Before administration (femoral artery; 0.5 mg/Kg i.v.): 19.5 mL/min
- Blood flow volume in femoral artery, B: After administration (femoral artery; 0.5 mg/Kg i.v.): 13.8 mL/min
- Blood flow volume in femoral artery, C: Increase degree (femoral artery; 0.5 mg/kg i.v.): 5.7 mL/min
- Blood flow volume in femoral artery, D: Increase rate (femoral artery; 0.5 mg/kg i.v.): 36.7%
- LD50 (in vivo): > 8000 mg/kg
- Survival time of dead mice (mice; 10 mg/Kg oral): 127 ± 14 s
- Mortality (mice; 10 mg/Kg oral): 86%
- Survival time of dead mice (mice; 30 mg/Kg oral): 127.5 ± 14 s
- Mortality (mice; 30 mg/Kg oral): 86%
- Mortality (mice; 100 mg/Kg oral): 0%
- Mortality (mice; 300 mg/Kg oral): 0%
- Mortality (number of rabbits) (rabbits; 3 mg/Kg oral, 2 hrs. after administration, of 4 rabbits): 2
- Mortality (number of rabbits) (rabbits; 3 mg/Kg oral, 6 hrs. after administration, of 4 rabbits): 1
- Mortality (number of rabbits) (rabbits; 3 mg/Kg oral, 24 hrs. after administration, of 4 rabbits): 1
- Mortality (number of rabbits) (rabbits; 10 mg/Kg oral, 6 hrs. after administration, of 4 rabbits): 4
- Mortality (number of rabbits) (rabbits; 30 mg/Kg oral, 24 hrs. after administration, of 8 (Compound 1) or 4 rabbits): 2
- Mortality (number of rabbits) (rabbits; 30 mg/Kg oral, 48 hrs. after administration, of 8 (Compound 1) or 4 rabbits): 2
- inhibition at 3 mg/kg (blood platelets; 3 mg/Kg oral (Table 5), read-out: Inhibitory rate of blood platelet aggregation): 39%
- inhibition at 10 mg/kg (blood platelets; 10 mg/Kg oral (Table 5), read-out: Inhibitory rate of blood platelet aggregation): 70.1%
- inhibition at 10 mg/kg (blood platelets; 10 mg/Kg oral, 1 hour after administration, collagen 7 to 10 μg/ml, read-out: Inhibitory rate (blood platelet aggregation)): 70.1%
- inhibition at 30 mg/kg (blood platelets; 30 mg/Kg oral (Table 5), read-out: Inhibitory rate of blood platelet aggregation): 85.5%
- inhibition at 100 mg/kg (blood platelets; 100 mg/Kg oral (Table 5), read-out: Inhibitory rate of blood platelet aggregation): 100%
- Blood flow volume in carotid artery, A: Before administration (carotid artery; 0.01 mg/Kg i.v.): 15.6 mL/min
- Blood flow volume in carotid artery, B: After administration (carotid artery; 0.01 mg/Kg i.v.): 19.4 mL/min
- Blood flow volume in carotid artery, C: Increase degree (carotid artery; 0.01 mg/Kg i.v.): 3.9 mL/min
- Blood flow volume in carotid artery, D: Increase rate (carotid artery; 0.01 mg/Kg i.v.): 24.9%
- Blood flow volume in carotid artery, A: Before administration (carotid artery; 0.05 mg/Kg i.v.): 13.9 mL/min
- Blood flow volume in carotid artery, B: After administration (carotid artery; 0.05 mg/Kg i.v.): 17.7 mL/min
- Blood flow volume in carotid artery, C: Increase degree (carotid artery; 0.05 mg/Kg i.v.): 3.8 mL/min
- Blood flow volume in carotid artery, D: Increase rate (carotid artery; 0.05 mg/Kg i.v.): 24.8%
- Blood flow volume in carotid artery, A: Before administration (carotid artery; 0.1 mg/Kg i.v.): 14.5 mL/min
- Blood flow volume in carotid artery, B: After administration (carotid artery; 0.1 mg/Kg i.v.): 22.4 mL/min
- Blood flow volume in carotid artery, C: Increase degree (carotid artery; 0.1 mg/Kg i.v.): 7.9 mL/min
- Blood flow volume in carotid artery, D: Increase rate (carotid artery; 0.1 mg/Kg i.v.): 54.3%
- Blood flow volume in carotid artery, A: Before administration (carotid artery; 0.5 mg/Kg i.v.): 16.7 mL/min
- Blood flow volume in carotid artery, B: After administration (carotid artery; 0.5 mg/Kg i.v.): 32.1 mL/min
- Blood flow volume in carotid artery, C: Increase degree (carotid artery; 0.5 mg/Kg i.v.): 15.4 mL/min
- Blood flow volume in carotid artery, D: Increase rate (carotid artery; 0.5 mg/Kg i.v.): 96.0%
- Aggregation rate with ADP when carotid artery ring added ([1]; 3 mg/Kg oral): 0.0%
- Aggregation rate with ADP when carotid artery ring added ([1]; 10 mg/Kg oral): 7.7%
- Aggregation rate with ADP when carotid artery ring added ([1]; 30 mg/Kg oral): 1.3%
- Aggregation rate with ADP when carotid artery ring added ([1]; 100 mg/Kg oral): 23.3%
